Our source for the IC50 and solubility values is patent US9657057B2, “Dipeptide and tripeptide epoxy ketone protease inhibitors” (Onyx Therapeutics, Inc., priority 2013, dated 2017).

In brackets after ≈: the same amount, converted by molar mass. Several values for one entry are separate records, joined by “and”; a condition that tells them apart may be missing. Identical values can stand only once.

The target in data set [1] is i20S (20S immunoproteasome) (Homo sapiens, UniProt P20618+P28062). Put plainly: 20S proteasome assay, chymotrypsin-like activity (LLVY), i20S. Type of data set: biochemical. Particulars: LLVY i20S Hu 1 h CONT: IC50 (nM), succinyl-Leu-Leu-Val-Tyr-AMC. An excerpt:
(§1) Assay buffer consisted of TE buffer [20 mmol/L Tris (pH 8.0), 0.5 mmol/L EDTA] with (20S) or without (cell lysate) 0.03% SDS. Reactions were initiated by enzyme or lysate addition and monitored for AMC product formation at 27jC with a plate-based spectofluorometer (Tecan).

Data set [2] addresses c20S (constitutive 20S proteasome) (Homo sapiens, UniProt P20618+P28074). Put plainly: 20S proteasome assay, chymotrypsin-like activity (LLVY), c20S. Type of data set: biochemical. Particulars: LLVY c20S Hu 1 h CONT: IC50 (nM), succinyl-Leu-Leu-Val-Tyr-AMC.
From the text: as §1

The nature of data set [3]: Solubility pH 7. Type of data set: physicochemical. Particulars: pH 7, aqueous buffer.
Data set [4] concerns the target T1, β5 (Homo sapiens, UniProt P20618+P28074).
T1 construct: endogenous in cells; host or cells: MOLT-4
The data set is described as follows: ProCISE proteasome subunit assay, β5. Type of data set: biochemical. Here is the method:
(§2) This assay was used to assess the inhibitory activity against each of LMP2, LMP7, MECL1, β1, β2, and β5. Briefly, test compounds were serially diluted in DMSO at 100× concentration, then diluted to 10× in aqueous hypotonic lysis buffer. Lysate from the human acute lymphoblastic leukemia cell line, MOLT-4, was treated for 1 hour at 25° C. with compound at a final 1× concentration. […] Following this, lysate was denatured in guanidine hydrochloride, and subunits bound to probe were isolated with streptavidin-conjugated sepharose beads. Individual subunits were probed with subunit-specific primary antibodies, followed by HRP-conjugated secondary antibodies. A chemiluminescent substrate was used to generate signal associated with HRP binding, which was detected on a plate reader. Luminescent signal was normalized to protein content, then, percent activity calculated relative to DMSO-treated controls to generate IC50 curves.

The target of data set [5] is T2, LMP7 (Homo sapiens, UniProt P20618+P28062).
T2 construct: endogenous in cells; host or cells: MOLT-4
Put plainly: ProCISE proteasome subunit assay, LMP7. Type of data set: biochemical. Here is the method: as §2

A word on the IC50: it is the point on the concentration scale where inhibition reaches its midpoint. Low values mean inhibition by little substance, high ones a need for much substance. As usually defined, the solubility is how much of the substance goes into solution per volume. Turning to `COCCC(=O)N[C@@H](C)C(=O)N[C@@H](Cc1ccc(OC)cc1)C(=O)N[C@@H](CC1CCCC1)C(=O)[C@@]1(C)CO1` [Compound C-2019, (S)—N—((S)-3-cyclopentyl-1-((R)-2-methyloxiran-2-yl)-1-oxopropan-2-yl)-3-(4-methoxyphenyl)-2-((S)-2-(3-methoxypropanamido)propanamido)propanamide], the half-inhibitory concentration (IC50) in data set [1] came to 332 nM; in data set [2], 579 nM. The same molecule had a solubility in data set [3] of 316 µg/mL (≈ 594 µM).
In the case of `COc1ccc(C[C@H](NC(=O)[C@@H](C)NC(=O)c2oncc2C)C(=O)N[C@@H](CC2CCCC2)C(=O)[C@@]2(C)CO2)cc1` [Compound C-2024, N—((R)-1-(((S)-1-(((S)-3-cyclopentyl-1-((R)-2-methyloxiran-2-yl)-1-oxopropan-2-yl)amino)-3-(4-methoxyphenyl)-1-oxopropan-2-yl)amino)-1-oxopropan-2-yl)-4-methylisoxazole-5-carboxamide], the results for the concentration for half-maximal inhibition (IC50) in data set [1] and in data set [2] were 2270 nM and 6030 nM, respectively. The same molecule gave a solubility in data set [3] of 44.1 µg/mL (≈ 79.5 µM).
In the case of `COc1ccc(C[C@H](NC(=O)[C@]2(C)CCC(=O)N2)C(=O)N[C@@H](Cc2ccccc2)C(=O)[C@@]2(C)CO2)cc1` [Compound C-3011, (S)—N—((S)-3-(4-methoxyphenyl)-1-(((S)-1-((R)-2-methyloxiran-2-yl)-1-oxo-3-phenylpropan-2-yl)amino)-1-oxopropan-2-yl)-2-methyl-5-oxopyrrolidine-2-carboxamide], the IC50 in data set [1] stood at 4550 nM; in data set [2], 3320 nM. In data set [3], this molecule showed a solubility of 1230 µg/mL (≈ 2420 µM).
For the molecule `COc1ccc(C[C@H](NC(=O)[C@H](C)NC(=O)c2cnc(C)s2)C(=O)N[C@@H](CC2CCCC2)C(=O)[C@@]2(C)CO2)cc1` [Compound C-2025, N—((S)-1-(((S)-1-(((S)-3-cyclopentyl-1-((R)-2-methyloxiran-2-yl)-1-oxopropan-2-yl)amino)-3-(4-methoxyphenyl)-1-oxopropan-2-yl)amino)-1-oxopropan-2-yl)-2-methylthiazole-5-carboxamide], the IC50 in data set [1] was determined as 569 nM; in data set [2], 289 nM. The molecule also gave a solubility in data set [3] of 144 µg/mL (≈ 253 µM).
On to `COc1ccc(C[C@H](NC(=O)[C@@H](NC(=O)OCc2ccccc2)C2(O)CC2)C(=O)N[C@@H](Cc2ccccc2)C(=O)[C@@]2(C)CO2)cc1` [Compound C-2046, Benzyl ((S)-1-(1-hydroxycyclopropyl)-2-(((S)-3-(4-methoxyphenyl)-1-(((S)-1-((R)-2-methyloxiran-2-yl)-1-oxo-3-phenylpropan-2-yl)amino)-1-oxopropan-2-yl)amino)-2-oxoethyl)carbamate], for which the IC50 is 5.2 nM in data set [1] and 7.9 nM in data set [2]. In data set [3], this molecule returned a solubility of 10.7 µg/mL (≈ 17 µM).
In the case of `COc1ccc(C[C@H](NC(=O)[C@H](C)NC(=O)C2=C(C)c3ccccc3C2)C(=O)N[C@@H](Cc2ccccc2)C(=O)[C@@]2(C)CO2)cc1` [Compound C-2049, N—((S)-1-(((S)-3-(4-methoxyphenyl)-1-(((S)-1-((R)-2-methyloxiran-2-yl)-1-oxo-3-phenylpropan-2-yl)amino)-1-oxopropan-2-yl)amino)-1-oxopropan-2-yl)-3-methyl-1H-indene-2-carboxamide], the 50% inhibitory concentration (IC50) in data set [4] (ProCISE beta5 MOLT4 lysate Hu 1 h CONT: IC50 (nM)) stood at 57.6 nM; in data set [5] (ProCISE LMP7 MOLT4 lysate Hu 1 h CONT: IC50 (nM)), 45.8 nM. For the same molecule, the solubility in data set [3] was 0.8 µg/mL (≈ 1.31 µM).
For `COc1ccc(C[C@H](NC(=O)[C@H](CN2CCOCC2)NC(=O)c2cc(C)no2)C(=O)N[C@@H](CC2CCCC2)C(=O)[C@@]2(C)CO2)cc1` [Compound C-2044, N—((S)-1-(((S)-1-(((S)-3-cyclopentyl-1-((R)-2-methyloxiran-2-yl)-1-oxopropan-2-yl)amino)-3-(4-methoxyphenyl)-1-oxopropan-2-yl)amino)-3-morpholino-1-oxopropan-2-yl)-3-methylisoxazole-5-carboxamide], the values for the 50% inhibitory concentration (IC50) in data set [1] and in data set [2] were 1600 nM and 286 nM, respectively. This molecule gave a solubility in data set [3] of 130 µg/mL (≈ 204 µM).
Take `C[C@@H](NC(=O)CC(C)(C)O)C(=O)N[C@@H](Cc1ccc(S(C)(=O)=O)cc1)C(=O)N[C@@H](CC1CCCC1)C(=O)[C@H]1CO1` [Compound C-2055, N—((R)-1-(((S)-1-(((S)-3-cyclopentyl-1-((R)-oxiran-2-yl)-1-oxopropan-2-yl)amino)-3-(4-(methylsulfonyl)phenyl)-1-oxopropan-2-yl)amino)-1-oxopropan-2-yl)-3-hydroxy-3-methylbutanamide]: the IC50 in data set [4] (MOLT4 lysate Hu 1 h) was found to be 354 nM; in data set [5] (MOLT4 lysate Hu 1 h) it was 17.6 nM. In data set [3], this molecule yielded a solubility of 1970 µg/mL (≈ 3400 µM).
`COc1ccc(C[C@H](NC(=O)[C@H](C)NC(=O)CO)C(=O)N[C@@H](Cc2ccccc2)C(=O)[C@@]2(C)CO2)cc1` [Compound C-2008]: the figures for the concentration for half-maximal inhibition (IC50) in data set [1] and in data set [2] were 558 nM and 1590 nM, respectively. The molecule further registered a solubility in data set [3] of 2330 µg/mL (≈ 4560 µM).
For `COc1ccc(C[C@H](NC(=O)[C@H]2CC(=O)N2)C(=O)N[C@@H](Cc2ccccc2)C(=O)[C@@]2(C)CO2)cc1` [Compound C-3003, (R)—N—((S)-3-(4-methoxyphenyl)-1-(((S)-1-((R)-2-methyloxiran-2-yl)-1-oxo-3-phenylpropan-2-yl)amino)-1-oxopropan-2-yl)-4-oxoazetidine-2-carboxamide], the values for the 50% inhibitory concentration (IC50) in data set [4] (MOLT4 lysate Hu 1 h) and in data set [5] (MOLT4 lysate Hu 1 h) were 1220 nM and 513 nM, respectively. Also, the solubility in data set [3] amounted to 1200 µg/mL (≈ 2500 µM).
Take `COc1ccc(C[C@H](NC(=O)[C@@H](C)NC(=O)CC(C)(C)O)C(=O)N[C@@H](Cc2ccc(C)cc2)C(=O)[C@H]2CO2)cc1` [Compound C-2053, 3-hydroxy-N—((R)-1-(((S)-3-(4-methoxyphenyl)-1-(((S)-1-((R)-oxiran-2-yl)-1-oxo-3-(p-tolyl)propan-2-yl)amino)-1-oxopropan-2-yl)amino)-1-oxopropan-2-yl)-3-methylbutanamide]: the 50% inhibitory concentration (IC50) was 5.27 nM in data set [4] (MOLT4 lysate Hu 1 h) and 1.82 nM in data set [5] (MOLT4 lysate Hu 1 h). This molecule also yielded a solubility in data set [3] of 1260 µg/mL (≈ 2270 µM).
Take `COc1ccc(C[C@H](NC(=O)[C@@H](C)NC(=O)C2=Cc3ccccc3C2)C(=O)N[C@@H](CC2CCCC2)C(=O)[C@@]2(C)CO2)cc1` [Compound C-2036, N—((R)-1-(((S)-1-(((S)-3-cyclopentyl-1-((R)-2-methyloxiran-2-yl)-1-oxopropan-2-yl)amino)-3-(4-methoxyphenyl)-1-oxopropan-2-yl)amino)-1-oxopropan-2-yl)-1H-indene-2-carboxamide]: the IC50 in data set [4] (MOLT4 lysate Hu 1 h) is 4860 nM; in data set [5] (MOLT4 lysate Hu 1 h) it was 130 nM; in data set [2] it was 5140 nM and 2710 nM. In data set [3], this molecule came in with a solubility of 2.1 µg/mL (≈ 3.57 µM).
Regarding `COc1ccc(C[C@H](NC(=O)[C@@H](C)NC(=O)[C@H]2CCc3[nH]ncc3C2)C(=O)N[C@@H](CC2CCCC2)C(=O)[C@@]2(C)CO2)cc1` [Compound C-2065, (S)—N—((R)-1-(((S)-1-(((S)-3-cyclopentyl-1-((R)-2-methyloxiran-2-yl)-1-oxopropan-2-yl)amino)-3-(4-methoxyphenyl)-1-oxopropan-2-yl)amino)-1-oxopropan-2-yl)-4,5,6,7-tetrahydro-1H-indazole-5-carboxamide], the concentration for half-maximal inhibition (IC50) came out at 6630 nM in data set [4] (MOLT4 lysate Hu 1 h) and 157 nM in data set [5] (MOLT4 lysate Hu 1 h). In data set [3], this molecule displayed a solubility of 121 µg/mL (≈ 204 µM).
As for `COc1ccc(C[C@H](NC(=O)[C@@H](C)NC(=O)[C@@H]2CCc3[nH]ncc3C2)C(=O)N[C@@H](CC2CCCC2)C(=O)[C@@]2(C)CO2)cc1` [Compound C-2064, (R)—N—((R)-1-(((S)-1-(((S)-3-cyclopentyl-1-((R)-2-methyloxiran-2-yl)-1-oxopropan-2-yl)amino)-3-(4-methoxyphenyl)-1-oxopropan-2-yl)amino)-1-oxopropan-2-yl)-4,5,6,7-tetrahydro-1H-indazole-5-carboxamide], the half-inhibitory concentration (IC50) came to 6110 nM in data set [4] (MOLT4 lysate Hu 1 h) and 139 nM in data set [5] (MOLT4 lysate Hu 1 h). Moreover, the concentration in solution in data set [3] (solubility) was 144 µg/mL (≈ 242 µM).
Taken in the same sequence, the figures for `CC1=C(C(=O)N[C@H](C)C(=O)N[C@@H](Cc2c[nH]c3ccccc23)C(=O)N[C@@H](CC2CCCC2)C(=O)[C@@]2(C)CO2)Cc2ccccc21` [Compound C-2047, N—((R)-1-(((S)-1-(((S)-3-cyclopentyl-1-((R)-2-methyloxiran-2-yl)-1-oxopropan-2-yl)amino)-3-(1H-indol-3-yl)-1-oxopropan-2-yl)amino)-1-oxopropan-2-yl)-3-methyl-1H-indene-2-carboxamide] were 1100 nM, 68.7 nM and 0.3 µg/mL (≈ 0.491 µM).
For the molecule `COc1ccc(C[C@H](NC(=O)[C@@H]2CC(=O)N2)C(=O)N[C@@H](Cc2ccccc2)C(=O)[C@@]2(C)CO2)cc1` [Compound C-3002, (S)—N—((S)-3-(4-methoxyphenyl)-1-(((S)-1-((R)-2-methyloxiran-2-yl)-1-oxo-3-phenylpropan-2-yl)amino)-1-oxopropan-2-yl)-4-oxoazetidine-2-carboxamide], the IC50 in data set [4] (MOLT4 lysate Hu 1 h) was 1930 nM; in data set [5] (MOLT4 lysate Hu 1 h) it was 934 nM. This molecule yielded a solubility in data set [3] of 1460 µg/mL (≈ 3050 µM).
